Results reported in patent publication US20070123467A1, “Amniotic-derived peptide and uses thereof” (priority 2003, published 2007).
Residues, ends and D or L forms follow the SMILES beside them.

Key:
LPS-induced lethality = test: Time and dose effects of LAP on LPS-induced lethality (Example 14); type: in vivo, CD1 mice; settings: 1 mg LPS i.p.
Procedure: To induce lethal endotoxemia, the mice were injected i.p. with 1 mg lipopolysaccharide (LPS, Cod. L6011, lot 112K4063, Sigma Chimica, Milan, Italy). LAP was provided by Lajor BioTech (Pittsburgh, Pa. USA), dissolved volume/volume in trifluoroacetic acid 0.1% in water and Na2HPO4 and injected ip in a final volume of 100 mcl.
Statistical analysis was performed by chi-square for lethality and one way ANOVA for cytokine measurements. P values lower than 0.05 were taken as significant.

[1] = test system: auto-immune diabetes in the NOD mouse; settings: in vivo
Description: (§3) Female NOD mice (Charles River, Calco, Italy) were maintained under standard laboratory conditions (non-specific pathogen free) with free access to food and water. During the study period of diabetes prevention the mice were screened for diabetes development twice a week by means of glycosuria followed, when positive, by measurement of glycaemia. Mice are diagnosed as diabetic when fasting glycaemia is above 12 mmol/l for 2 consecutive days.
(§4) Euglycaemic female NOD mice were randomly allocated into 4 different groups receiving either LAP or vehicle starting at the 4th or at the 12th week of age. Because insulitis is virtually absent in 4-week-old NOD mice and is actively ongoing at 12 weeks, this approach allowed us to investigate the effects of LAP-treatment in both the early and late diabetogenic stages of the NOD mouse. The readout of the early prohylactic treatment was to evaluate the effect of LAP on development of insulitis, while the readout of the late prophylactic treatment was to evaluate the effect of LAP on the incidence of clinically overt diabetes.
(§5) For the early prophylactic treatment 4-week-old NOD mice were treated with either 10 mcg LAP (dissolved and diluted [100 mcl final volume] as described in Example 14 and 15) or 100 mcl vehicle, daily, six times weekly until the age of 14 weeks. At this point, the euglycaemic mice were sacrificed and their pancreatic specimens collected for histological examination of insulitis.
(§6) For the late prophylactic treatment, 12-week-old NOD mice were randomly divided into two experimental groups, one treated with LAP and the other with vehicle, under the same experimental regime described for the early prophylactic treatment.
(§7) Histological examination of the pancreatic islets was performed in a blind fashion by two pathologists unaware of the status and/or the treatment of the animals, as described previously (See 16-3 to 16-5). The degree of mononuclear cell infiltration is graded as follows: 0, no infiltrate; 1, peri-ductular infiltrate; 2, peri-islet infiltrate; 3, intra-islet infiltrate; 4, intra-islet infiltrate associated with β-cell destruction. At least 12 islets are counted for each mouse. The mean score for each pancreas is calculated by dividing the total score by the numbers of islets.

Con A-induced hepatitis = Con A-induced hepatitis in mice, plasma ALAT, LAP prophylaxis (Example 15); type: in vivo, CD1 male mice
Procedure: Eight weeks old outbred CD1 male mice (Charles River, Calco, Italy) were kept under standard laboratory conditions (non-specific pathogen free) at 24° C. with free access to food and water. The food was withdrawn 16 hours prior to the experiments.
Con A (Sigma Chemical, St. Louis, Mo.), dissolved in sterile phosphate-buffered saline (PBS) was injected into the tail veins. The groups were treated with either LAP (dissolved volume/volume in trifluoroacetic acid 0.1% in water and Na2HPO4 and then further diluted in water for injection), or its vehicle, 1 hour prior to and one hour after Con A. An additional group of control mice was injected with Con A and received no treatment. Finally, other two groups of mice were also included for comparison that were either injected i.v. with PBS or received no treatment (Table 8). LAP, its vehicle, PBS and Con A were all injected in a final volume of 100 microliter (mcl). The animals were sacrificed for blood collection 8 hours after Con A injection, when biochemical and signs (transaminases increase) of hepatic injury are pronounced (15-1 to 15-9). Mice dead before sacrifice (Table 8) were not included.
Plasma alanine aminotransferase (ALAT) activity was determined by a standard photometric assay using a bichromatic analyzer. Results are expressed in U/L
Results are shown as mean values ±SD. Statistical analysis was performed by one way ANOVA. The effect of LAP was considered to be statistically significant when the difference of ALAT blood levels versus controls yields a p value at least lower than 0.05.

IFN-γ = test: LPS-induced blood levels of IFN-γ, ELISA (Example 14); type: in vivo, mouse; settings: 10 mcg LAP; 2 and 8 hours after LPS
Procedure: (§1) Plasma samples were obtained by blood obtained from individual mice at sacrifice. TNF-α, IFN-γ and IL-10 were measured by mouse specific solid-phase ELISA according to the manufacturer's (Celbio Euroclone, Milan, Italy) instructions. Intra and inter-assays coefficient of variations were within 10%. The limit of sensitivity of the assays were 7 pg/ml. For statistical analysis, samples with undetectable amounts of cytokine were assigned 7 pg as theoretical value.
(§2) Injection of LPS is associated with a marked increase in the blood levels of both type 1 (IFN-γ, TNF-α, IL-1) and type 2 (IL-10) cytokines that occurs with different kinetic after the inoculation of the toxin. To evaluate the effects of LAP treatment on LPS-induced cytokine increase in the circulation of the mice, experiments were carried out where mice treated with 10 mcg LAP or its vehicle, were sacrificed just before injection of a sublethal dose of LPS one hour after treatment with either LAP or PBS (T0) and then 2 (T2) and 8 (T8) hours after LPS.

[2] = test system: LPS-induced lethality in mice; test: Potency of LAP in counteracting lethality induced by a DL100 dose of LPS (Example 3); type: in vivo, CD1 mice; settings: for Lethality 24 h / Lethality 24 h (dead/total) / Lethality 48 h / Lethality 48 h (dead/total) / Lethality 72 h / Lethality 72 h (dead/total): LPS 1 mg/mouse
Description: Synthetic peptide or Lajor Active Peptide (LAP) was synthesized chemically to produce the amino acid sequence of the previously-identified bioactive peptide contained in Fractions 2, 3 and 4 of the low molecular weight components of PLB. […] Mice treated with Fraction 4 prepared from PLB were used as positive controls.
Six weeks old female CD1 mice (Charles River, Calco, Italy) were used. The mice were allowed to adapt one week to their environment before commencing the study. They were kept under standard laboratory condition with ad libitum food and water.
The mice were injected i.p. with 1 mg of lipopolysaccharide (LPS) (Sigma Chimica, Milan, Italy). Mortality was recorded every 24 hours up to 72 hours after challenge with LPS.

TNF-α = test: LPS-induced blood levels of TNF-α, ELISA (Example 14); type: in vivo, mouse; settings: 10 mcg LAP
Procedure: as §1, §2

IL-10 = test: Blood levels of IL-10, ELISA (Example 14); type: in vivo, mouse
Procedure: as §1, §2

CD4+CD25− T cells = test: T cell proliferation assay, thymidine incorporation (Example 21); type: cell-based, Balb/c mouse
Procedure: T cell proliferation assays were set up as follows. Antigen presenting cells (APCs) obtained as single cell suspension from Balb/c mouse spleens were pulsed with fecal extract (from Balb/C mice) overnight in 24 well-plate (1×10^6 cells/ml with 400 μg/ml of extract). Responding cells were obtained from Balb/c mouse spleens as CD4^+CD25^− T cells. CD4+ T cells were selected by DYNABEADS, and CD4^+CD25^− T cells were then selected using labelled anti-CD25 antibody (e.g. PE-labelled anti-CD25). Responding T cells were co-cultured with APC in 96 round bottom well-plate (3.3×10^4 responding cell/1×10^5 APC in 200 μl) in the presence or absence of LAP for 5 days. Immune cell proliferation was then determined by standard thymidine incorporation assays.

[3] = test system: auto-immune diabetes in the NOD mouse; test: LAP in development of insulitis and auto-immune diabetes in NOD mouse (Example 16)
Description: as §3, §4, §5, §6, §7

## CC[C@H](C)[C@H](NC(=O)[C@H](CCC(=O)O)NC(=O)[C@@H](NC(=O)[C@H](C)NC(=O)[C@H](CO)NC(=O)[C@@H](NC(=O)[C@@H](N)CC(N)=O)C(C)C)C(C)C)C(=O)N[C@@H](C)C(=O)O [LAP, NH2-NVSAVEIA-COOH] (H-NVSAVEIA-OH)
LPS-induced lethality; 1 mcg at −24, −1 h
  Lethality 72 h: (79%)
  Lethality 72 h (dead/total): 11/14
LPS-induced lethality; 10 mcg at +1 h
  Lethality 72 h: (71%)
  Lethality 72 h (dead/total): 10/14
LPS-induced lethality; 10 mcg at −1, +1 h
  Lethality 72 h: (14%)
  Lethality 72 h (dead/total): 2/14
LPS-induced lethality; 10 mcg at −24, −1 h
  Lethality 72 h: (14%)
  Lethality 72 h (dead/total): 2/14
LPS-induced lethality; 20 mcg at −1, +1 h
  Lethality 72 h: (100%)
  Lethality 72 h (dead/total): 14/14
[1]
  tolerability of long-term administration (clinical appearance and behaviours): apparently well tolerated
Con A-induced hepatitis; 8 hours after Con A
  reduction of ALAT vs controls: 84.7%
Con A-induced hepatitis; LAP 1 hour prior to and one hour after Con A, 8 hours after Con A, mean ± SD
  ALAT values: 686 ± 197b U/L
Con A-induced hepatitis; LAP 1 hour prior to and one hour after Con A, within 8 hours
  Lethality (dead before sacrifice/total): 1/15
IFN-γ
  LPS-induced blood levels of IFN-γ (in words): did not modify
[2]; 2.5 mcg at −24, −1 h
  Lethality 24 h: 10%
  Lethality 24 h (dead/total): (2/20)
  Lethality 48 h: 35%
  Lethality 48 h (dead/total): (7/20)
  Lethality 72 h: 80%
  Lethality 72 h (dead/total): (16/20)
[2]; 10 mcg at −24, −1 h
  Lethality 24 h: 10%
  Lethality 24 h (dead/total): (2/20)
  Lethality 48 h: 35%
  Lethality 48 h (dead/total): (7/20)
  Lethality 72 h: 50%
  Lethality 72 h (dead/total): (10/20) c
[2]; different doses of LAP tested
  kinetic and cumulative rate of lethality (in words): unaffected
[2]; prophylactic treatment with 10 ucg
  cumulative rate of lethality (in words): markedly reduced
TNF-α; 2 hours after sublethal LPS (0.5 mg/mouse), p=0.01
  reduction of TNF-α blood levels vs. controls: 37.3%
TNF-α; 8 hours after sublethal LPS (0.5 mg/mouse), p=0.005
  reduction of TNF-α blood levels vs. controls: 76.5%
IL-10; 10 mcg LAP, 2 and 8 hours after LPS
  LPS-induced blood levels of IL-10 (in words): did not modify
IL-10; T0, 1 hour after 10 mcg LAP, before LPS, 0 out of 10 controls
  mice with detectable levels of IL-10 in the blood: 3 out of 10
CD4+CD25− T cells; 5 days co-culture
  CD4+CD25− T cell proliferation in response to antigen-pulsed APCs in the presence of the peptide: inhibited
CD4+CD25− T cells; APCs pre-treated for 24 hours
  T cell proliferation in response to APCs pre-treated with the peptide: not affected
[3]; early prophylaxis, 4 to 14 weeks of age, 2 of 8 vehicle controls
  NOD mice that developed diabetes during the treatment period: None and none
[3]; early prophylaxis, 10 mcg daily six times weekly from 4 to 14 weeks of age, vehicle 2±0.9
  insulitis score: 0.9±0.6
[3]; mice sacrificed at week 14
  azotemia and transaminases values vs controls: no differences
